Measured values taken from patent US20240148895A1, “ANTIBODY-DRUG CONJUGATE” (Eisai R&D Management Co., Ltd., priority 2022, published 2024).
Read-outs that look alike come from different tables or passages of the source.

Key:
[1] = system: AsPC-1/Cas9 cell line; test: AsPC-1/Cas9 growth inhibition assay; type: cell-based, human; conditions: AsPC-1/Cas9 cells, 5 days culture, CellTiter Glo 2.0, read-out: Absolute IC50—Day 5 (nM) AsPC-1 Cas9
Description: The human pancreatic cancer cell line AsPC-1 (ATCC Number CRL1682) was infected with Edit-R Lentiviral hCMV-Blast-Cas9 Nuclease Particle (Dharmacon, VCAS10124) in the presence of 8 μg/ml of Hexadimethrine bromide (Sigma, H9268), and after 24 hours it was exposed to 10 μg/ml of Blastcidin S (Thermo, A11139) to remove the uninfected cells, thereby establishing an AsPC-1/Cas9 cell line. The cells were maintenance cultured in a 5% CO2 incubator (37° C.) using RPMI-1640 (FujiFilm-Wako Pure Chemical Industries) containing 10% fetal bovine serum (FBS: SIGMA 173012) and penicillin/streptomycin (FujiFilm-Wako Pure Chemical Industries) (hereunder referred to simply as “culture medium”). After adding 45 μL of AsPC-1/Cas9 cell suspension prepared to 2.0×10^4 cells/mL using culture medium into each well of a 384-well plate (Greiner 781091), the cells were cultured overnight in a 5% CO2 incubator (37° C.). On the following day, 5 μL of the test substance diluted with culture medium was added to each well, and culturing was continued for 5 days in a 5% CO2 incubator (37° C.). Next, 25 μL of CellTiter Glo™ 2.0 (Promega) was added to each well, and the plate contents were mixed for 5 minutes using a plate mixer. The plate was stationed for 10 minutes at room temperature while shielded from light, and then the luminous intensity was measured with an ENVISION™ (Perkin-Elmer). The luminescence value of the wells with addition of test substance was determined as a relative value, with 100% as the luminescence value of the wells with cells but without addition of the test substance, and 0% as the luminescence value of the wells without cells. A plot of test substance concentration against luminescence value % approximated a 4-parameter logistic curve, and the test substance concentration necessary for 50% inhibition of cell growth (Absolute IC50) was calculated, and is shown in Table 4.

[2] = biological target: HiBiT tagged BRD4-BD1 protein in HEK293/LgBiT/hPGK/HiBiT-BRD4-BD1 cells (Homo sapiens, UniProt O60885); test: BET BD1 domain degradation assay; type: cell-based; design: HiBit-linker-BRD4 BD1(1-209); host or cells: HEK293 (ATCC CRL-1573) stably transduced with LgBiT and HiBiT-BRD4-BD1; conditions: concentration for 50% reduction in HiBiT-BRD4-BD1 protein level, 3 hours, read-out: Absolute DC50—3 h (nM) HEK293_HiBiT-BRD4-BD1
From the text: HEK293/LgBiT/hPGK/HiBiT-BRD4-BD1 cells were established by introducing LgBiT and HiBiT-BRD4-BD1 into the human fetus renal cell line HEK293 (ATCC Number CRL-1573). LgBiT was introduced using lentivirus vector LV[Exp]-Bsd-EFS>{LgBiT}, and HiBiT-BRD4-BD1 was introduced with lentivirus vector LV[Exp]-Puro-hPGK>{HiBit-linker-BRD4 BD1(1-209)}. The vector plasmids LV[Exp]-Bsd-EFS>{LgBiT} and LV[Exp]-Puro-hPGK>{HiBit-linker-BRD4_BD1(1-209)} were constructed by VectorBuilder Co. The lentivirus was produced using a Mission Lentivirus Packaging Mix (Sigma) according to the manufacturer's protocol. Viral infection and drug selection of infected cells were carried out by the following published method (Akagi T. et. al, PNAS 2003; 100:13567-72). The cells were maintenance cultured in a 5% CO2 incubator (37° C.), using culture medium. A 45 μL portion of cell suspension of HEK293/LgBiT/hPGK/HiBiT-BRD4-BD1 cells prepared to 6.7×10^4 cells/mL using culture medium was added to each well of a collagen I-coated 384-well plate (Falcon 356667), and the cells were cultured overnight in a 5% CO2 incubator (37° C.). On the following day, 5 μL of test substance diluted with RPMI-1640 (FujiFilm-Wako Pure Chemical Industries) containing 10% fetal bovine serum (FBS: SIGMA 173012) and penicillin/streptomycin (FujiFilm-Wako Pure Chemical Industries) was added to each well, and culturing was continued for 3 hours in a 5% CO2 incubator (37° C.). The luminous intensity was measured using a Nono-Glo HiBiT Lytic Detection System (Promega), and the intracellular HiBiT tagged BRD4-BD1 protein level was calculated. After culturing, 25 μL of measuring reagent was added to each well and the plate contents were mixed for 5 minutes using a plate mixer. The plate was stationed for 10 minutes at room temperature while shielded from light, and then the luminous intensity was measured with an ENVISION′ (Perkin-Elmer). The luminescence value of the wells with addition of test substance was determined as a relative value, with 100% as the luminescence value of the wells with cells but without addition of the test substance, and 0% as the luminescence value of the wells without cells. A plot of test substance concentration against luminescence value % approximated a 4-parameter logistic curve, and the test substance concentration necessary for 50% reduction in protein level (Absolute DC50) was calculated and is shown in Table 4.

Structure (SMILES)	IC50 ([1]; Homo sapiens, ASPC1, 120 h) [nM]	DC50 [2] [nM]	IC50 [1] [nM]
COc1ccc(C(=O)NC2(C)CCN(CC3CCN(c4nc(C(CO)(OC5CC5)c5ccccc5)c5cc(-c6cn(C)c(=O)c7occc67)ccc5n4)CC3)CC2)cc1N1CCC(=O)NC1=O (centres unmarked) [Example 108, N-(1-((1-(4-(1-Cyclopropoxy-2-hydroxy-1-phenylethyl)-6-(6-methyl-7-oxo-6,7-dihydrofuro[2,3-c]pyridin-4-yl)quinazolin-2-yl)piperidin-4-yl)methyl)-4-methylpiperidin-4-yl)-3-(2,4-dioxotetrahydropyrimidine-1(2H)-yl)-4-methoxybenzamide]	0.23	0.21	–
COc1ccc(C(=O)N2C[C@H](C)N(C3CCN(c4nc([C@@](CN)(OC5CC5)c5ccccc5)c5cc(-c6cn(C)c(=O)c7[nH]ccc67)ccc5n4)CC3)C[C@H]2C)cc1N1CCC(=O)NC1=O [Example 114, 1-(5-((2R,5 S)-4-(1-(4-((R)-2-Amino-1-cyclopropoxy-1-phenylethyl)-6-(6-methyl-7-oxo-6,7-dihydro-1H-pyrrolo[2,3-c]pyridin-4-yl)quinazolin-2-yl)piperidin-4-yl)-2,5-dimethylpiperazine-1-carbonyl)-2-methoxyphenyl)dihydropyrimidine-2,4(1H,3H)-dione]	0.11	0.33	–
COc1ccc(C(=O)N2C[C@H](C)N(CC3CCN(c4nc([C@@](CN)(OC5CC5)c5ccccc5)c5cc(-c6cn(C)c(=O)c7[nH]ccc67)ccc5n4)CC3)C[C@H]2C)cc1N1CCC(=O)NC1=O [Example 115, 1-(5-((2R,5 S)-4-((1-(4-((R)-2-Amino-1-cyclopropoxy-1-phenylethyl)-6-(6-methyl-7-oxo-6,7-dihydro-1H-pyrrolo[2,3-c]pyridin-4-yl)quinazolin-2-yl)piperidin-4-yl)methyl)-2,5-dimethylpiperazine-1-carbonyl)-2-methoxyphenyl)dihydropyrimidine-2,4-(1H,3H)-dione]	0.11	0.15	–
CNCCN(C)C(=O)OCC(OC1CC1)(c1ccccc1)c1nc(N2CCC(CN3C[C@@H](C)N(C(=O)c4ccc(OC)c(N5CCC(=O)NC5=O)c4)C[C@@H]3C)CC2)nc2ccc(-c3cn(C)c(=O)c4[nH]ccc34)cc12 (stereo partly drawn) [Example 119, 2-Cyclopropoxy-2-(2-(4-(((2S,5R)-4-(3-(2,4-dioxotetrahydropyrimidine-1(2H)-yl)-4-methoxybenzoyl)-2,5-dimethylpiperazin-1-yl)methyl)piperidin-1-yl)-6-(6-methyl-7-oxo-6,7-dihydro-1H-pyrrolo[2,3-c]pyridin-4-yl)quinazolin-4-yl)-2-phenylethyl methyl(2-(methylamino)ethyl)carbamate]	0.23	1.6	–
CNCCN(C)C(=O)OCC(OC1CC1)(c1ccccc1)c1nc(N2CCC(C#Cc3ccc(OC)c(N4CCC(=O)NC4=O)c3)CC2)nc2ccc(-c3cn(C)c(=O)c4[nH]ccc34)cc12 (centres unmarked) [Example 120, 2-Cyclopropoxy-2-(2-(4-((3-(2,4-dioxotetrahydropyrimidine-1(2H)-yl)-methoxyphenyl)ethynyl)piperidin-1-yl)-6-(6-methyl-7-oxo-6,7-dihydro-1H-pyrrolo[2,3-c]pyridin-4-yl)quinazolin-4-yl)-2-phenylethyl methyl(2-(methylamino)ethyl)carbamate]	0.58	2.9	–
Cc1cc(-c2ccc3nc(N4CCC(CN5CCN(C(=O)COc6cccc7c6C(=O)N(C6CCC(=O)NC6=O)C7=O)CC5)CC4)nc(C(CO)(OC4CC4)c4ccccc4)c3c2)cn(C)c1=O (centres unmarked) [Example 122, 4-(2-(4-((1-(4-(1-Cyclopropoxy-2-hydroxy-1-phenylethyl)-6-(1,5-dimethyl-6-oxo-1,6-dihydropyridin-3-yl)quinazolin-2-yl)piperidin-4-yl)methyl)piperazin-1-yl)-2-oxoethoxy)-2-(2,6-dioxopiperidin-3-yl)isoindoline-1,3-dione]	4.9	0.15	–

More lines, now with the values ahead:

IC50 ([1]; Homo sapiens, ASPC1, 120 h) [nM]	DC50 [2] [nM]	IC50 [1] [nM]	Structure (SMILES)
0.073	0.15	–	COc1ccc(C(=O)NC2(C)CCN(C3CCN(c4nc([C@@](CO)(OC5CC5)c5ccccc5)c5cc(-c6cn(C)c(=O)c7[nH]ccc67)ccc5n4)CC3)CC2)cc1N1CCC(=O)NC1=O (stereo in doubt) [Example 104, N-(1′-(4-(1-Cyclopropoxy-2-hydroxy-1-phenylethyl)-6-(6-methyl-7-oxo-6,7-dihydro-1H-pyrrolo[2,3-c]pyridin-4-yl)quinazolin-2-yl)-4-methyl-[1,4′-bipiperidin]-4-yl)-3-(2,4-dioxotetrahydropyrimidine-1(2H)-yl)-4-methoxybenzamide]
–	0.045	0.18	COc1ccc(C#CCNC2(C)CCN(C3CCN(c4nc(C(CO)(OC5CC5)c5ccccc5)c5cc(-c6cn(C)c(=O)c7[nH]ccc67)ccc5n4)CC3)CC2)cc1N1CCC(=O)NC1=O (stereo in doubt) [Example 145, (R)-1-(5-(3-((1′-(4-(1-Cyclopropoxy-2-hydroxy-1-phenylethyl)-6-(6-methyl-7-oxo-6,7-dihydro-1H-pyrrolo[2,3-c]pyridin-4-yl)quinazolin-2-yl)-4-methyl-[1,4′-bipiperidin]-4-yl)amino)prop-1-yn-1-yl)-2-methoxyphenyl)dihydropyrimidine-2,4(1H,3H)-dione]
–	0.083	0.087	COc1ccc(C#CCNC2(C)CCN(C3CCN(c4nc([C@@](CO)(OC5CC5)c5ccccc5)c5cc(-c6cn(C)c(=O)c7[nH]ccc67)ccc5n4)CC3)CC2)cc1N1CCC(=O)NC1=O [Example 101, (S)-1-(5-(3-((1′-(4-(1-Cyclopropoxy-2-hydroxy-1-phenylethyl)-6-(6-methyl-7-oxo-6,7-dihydro-1H-pyrrolo[2,3-c]pyridin-4-yl)quinazolin-2-yl)-4-methyl-[1,4′-bipiperidin]-4-yl)amino)prop-1-yn-1-yl)-2-methoxyphenyl)dihydropyrimidine-2,4(1H,3H)-dione]
0.073	0.045	–	Cn1cc(-c2ccc3nc(N4CC(OC5CCN(C(=O)c6cccc(N7CCC(=O)NC7=O)c6)CC5)C4)nc([C@@](CO)(OC4CC4)c4ccccc4)c3c2)c2cc[nH]c2c1=O [Example 103, (S)-1-(3-(4-((1-(4-(1-Cyclopropoxy-2-hydroxy-1-phenylethyl)-6-(6-methyl-7-oxo-6,7-dihydro-1H-pyrrolo[2,3-c]pyridin-4-yl)quinazolin-2-yl)azetidin-3-yl)oxy)piperidine-1-carbonyl)phenyl)dihydropyrimidine-2,4(1H,3H)-dione]
